Test results as given in PMC6385020 (Molecules, 2019).

What was measured:
[1] = test system: F-21CTA-T (DNA, G4) AGGGCTAGGGCTAGGGCTAGGG; test: FRET-melting; conditions: 1 mM KCl, 99 mM LiCl; 10 mM lithium cacodylate pH 7.3; 1 µM compound, 0.2 µM DNA
[2] = test system: F-CEB25-WT-T (DNA, G4) AGGGTGGGTGTAAGTGTGGGTGGGT; test: FRET-melting; conditions: 1 mM KCl, 99 mM LiCl; 10 mM lithium cacodylate pH 7.3; 1 µM compound, 0.2 µM DNA
[3] = test system: F-21-T (DNA, G4) GGGTTAGGGTTAGGGTTAGGG; test: FRET-melting; conditions: 10 mM KCl, 90 mM LiCl; 10 mM lithium cacodylate pH 7.3; 1 µM compound, 0.2 µM DNA
[4] = test system: F-myc-T (DNA, G4) TGAGGGTGGGTAGGGTGGGTAA; test: FRET-melting; conditions: 1 mM KCl, 99 mM LiCl; 10 mM lithium cacodylate pH 7.3; 1 µM compound, 0.2 µM DNA
[5] = test system: CCD19Lu normal lung cell line; test: Cell growth (proliferation), 96 h treatment; type: cell-based, human
Method: (§1) The ovarian carcinoma cell lines and human normal lung cells were purchased from ATCC and were grown in complete RPMI medium (ovarian) and DMEM (human lung cells) supplemented with 10% fetal calf serum, in the presence of penicillin, streptomycin. The resistance of A2780cis cells to cisplatin was maintained by monthly treatment with 1 µM cisplatin for 4 days. Concentrated stock solutions of complexes were conserved at −20 °C (DMSO/Water) and freshly diluted in water just before the experiments. Cells were treated with various concentrations of platinum complexes at 37 °C under humidity and 5% CO2 conditions for 96 h. Cellular growth was quantified using the particle counter MOXI (VWR).

[6] = test system: A2780cis cisplatin-resistant ovarian cancer cell line; test: Cell growth (proliferation), 96 h treatment; type: cell-based, human; conditions: 96 h treatment
Method: as §1

[7] = test system: A2780 ovarian cancer cell line; test: Cell growth (proliferation), 96 h treatment; type: cell-based, human; conditions: A2780, 96 h treatment
Method: as §1

[8] = test system: c-myc* (DNA, G4) TGAGGGTGGGTAGGGTGGGTAA; test: denaturing gel electrophoresis, 3'-exonuclease digestion; conditions: 100 mM KCl or KClO4; covalent; platination at T20/A21 and G2/A3; 18 h, 32 °C, 10 µM DNA
[9] = test system: ds26 (DNA, duplex) CAATCGGATCGAATTCGATCCGATTG; test: G4-FID, thiazole orange displacement; conditions: 100 mM KCl; 10 mM lithium cacodylate pH 7.3, 1% DMSO; thiazole orange displaced; 1 µM compound, 0.25 µM DNA
[10] = test system: CEB25-WT (DNA, G4) AAGGGTGGGTGTAAGTGTGGGTGGGT; test: G4-FID, thiazole orange displacement; conditions: 100 mM KCl; 10 mM lithium cacodylate pH 7.3, 1% DMSO; thiazole orange displaced; 1 µM compound, 0.25 µM DNA
[11] = test system: 21CTA (DNA, G4) AGGGCTAGGGCTAGGGCTAGGG; test: G4-FID, thiazole orange displacement; conditions: 100 mM KCl; 10 mM lithium cacodylate pH 7.3, 1% DMSO; thiazole orange displaced; 1 µM compound, 0.25 µM DNA
[12] = test system: 22AG (DNA, G4) AGGGTTAGGGTTAGGGTTAGGG; test: G4-FID, thiazole orange displacement; conditions: 100 mM KCl; 10 mM lithium cacodylate pH 7.3, 1% DMSO; thiazole orange displaced; 1 µM compound, 0.25 µM DNA
[13] = test system: c-myc (myc22) (DNA, G4) TGAGGGTGGGTAGGGTGGGTAA; test: G4-FID, thiazole orange displacement; conditions: 100 mM KCl; 10 mM lithium cacodylate pH 7.3, 1% DMSO; thiazole orange displaced; 1 µM compound, 0.25 µM DNA

## [C-]#Cc1ccccc1.[Pt+2].c1ccc(-c2cccc(-c3ccccn3)n2)nc1
[1]
  binding: no
[2]
  binding: no
[3]
  binding: no
[4]
  binding: no

## N.N.[Cl][Pt][Cl] [cisplatin, reference compound]
[5]
  IC50: 200 nM
[6]
  Resistance Factor (IC50ratio A2780cis/A2780): 9.1
[6]; A2780cis
  IC50: 3000 nM
[7]
  IC50: 330 nM

## [Cl-].[Pt+2].c1ccc(-c2cccc(-c3ccccn3)n2)nc1
[1]
  ΔTm: < 10 °C
[2]
  ΔTm: < 10 °C
[3]
  ΔTm: < 10 °C
[4]
  ΔTm: < 10 °C
[8]
  binding: yes

## [Cl-].[Pt+2].c1cc(-c2ccc3ccccc3n2)nc(-c2ccc3ccccc3n2)c1
[9]
  % TO displacement: < 20%
[10]
  % TO displacement: > 80%
[11]
  % TO displacement: > 80%
[12]
  % TO displacement: > 80%
[13]
  % TO displacement: > 80%
